ChEMBL document CHEMBL1201862, “PubChem BioAssay data set” (2004)
Calls of active or inactive are those of the source.

Key:
Beta-galactosidase = Beta-galactosidase (Escherichia coli, UniProt Q8VNN2); assay: PubChem AID 485352; type: functional
BJ [1] = assay: cytotoxicity toward BJ-TERT fibroblasts, dose response, cell-based, RAS-independent, luminescence (AID 1933); type: functional; details: Homo sapiens
[2] = control 3'UTR Renilla luciferase suppression, dose response, counter-screen for Shn3 inhibitor project, cell-based, Clone20-Shn3RL, cherry-picked (AID 624133); type: functional
Vero [3] = assay: cells; type: functional, cell-based; details: Chlorocebus sabaeus
[4] = Shn3 3'UTR reporter inhibitors, dose response, cell-based, Clone20 osteoblasts, firefly luciferase, cherry-picked (AID 624132); type: functional;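 note: firefly luciferase luminescence from reporter carrying the Shn3 3'UTR in osteoblasts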
[5] = biological target: T1, Type-1 angiotensin II receptor (Homo sapiens, UniProt P30556); assay: AT1 receptor antagonists, dose response, selectivity assay for APJ receptor antagonist project, cell-based, uHTS hits (AID 463214); type: functional;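 note: antagonist potency against angiotensin II stimulated AT1 response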
T1 sequence (P30556 whole entry): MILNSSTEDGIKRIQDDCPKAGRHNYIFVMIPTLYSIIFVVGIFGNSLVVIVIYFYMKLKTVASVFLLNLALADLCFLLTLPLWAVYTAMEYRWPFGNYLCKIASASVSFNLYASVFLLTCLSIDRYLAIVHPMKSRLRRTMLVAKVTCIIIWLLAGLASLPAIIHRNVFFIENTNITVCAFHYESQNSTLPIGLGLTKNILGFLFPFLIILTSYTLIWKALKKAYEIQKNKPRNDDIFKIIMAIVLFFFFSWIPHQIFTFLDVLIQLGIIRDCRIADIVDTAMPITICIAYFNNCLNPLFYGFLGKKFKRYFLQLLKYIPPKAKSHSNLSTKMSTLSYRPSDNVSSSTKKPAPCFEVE

BJ [6] = assay: cytotoxicity toward BJ-TERT-LT-ST fibroblasts, dose response, cell-based, RAS-independent, luminescence (AID 1935); type: functional; details: Homo sapiens;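 note: BJ fibroblasts immortalized with TERT plus LT and ST oncogenes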
Vero [7] = assay: cells; type: functional; details: Chlorocebus sabaeus
[8] = cytotoxicity toward DRD oncogenic fibroblasts, dose response, cell-based, non-viral oncogenic, luminescence (AID 1934); type: functional; details: Homo sapiens
[9] = Luminescence Cell-Based Dose Retest to Confirm Inhibitors of Cancer Stem Cells. [Related pubchem assays (depositor defined):AID2717, AID2721]; type: functional; details: Homo sapiens
[10] = HepG2 cell cytotoxicity, dose response, cytotoxicity control for Shn3 inhibitor project, CellTiter-Glo, cherry-picked (AID 624134); type: functional, cell-based
BJ [11] = assay: cytotoxicity toward Ras-transformed BJeLR fibroblasts, dose response, cell-based, alamar blue fluorescence, cherrypicked samples (AID 2631); type: functional; details: Homo sapiens;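 note: confirmatory dose-response assay in RAS-dependent BJ fibroblasts engineered with TERT, LT and ST, with cytotoxicity read by fluorescence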
BJ [12] = assay: cells; type: functional, cell-based; details: Homo sapiens
[13] = biological target: T2, Rac GTPase-activating protein 1 (Homo sapiens, UniProt Q9H0H5); assay: MgcRacGAP GTPase-activating activity inhibitors, confirmation, biochemical, ADP Hunter fluorescence, primary and confirmatory (AID 624330); type: functional
T2 sequence (Q9H0H5 whole entry): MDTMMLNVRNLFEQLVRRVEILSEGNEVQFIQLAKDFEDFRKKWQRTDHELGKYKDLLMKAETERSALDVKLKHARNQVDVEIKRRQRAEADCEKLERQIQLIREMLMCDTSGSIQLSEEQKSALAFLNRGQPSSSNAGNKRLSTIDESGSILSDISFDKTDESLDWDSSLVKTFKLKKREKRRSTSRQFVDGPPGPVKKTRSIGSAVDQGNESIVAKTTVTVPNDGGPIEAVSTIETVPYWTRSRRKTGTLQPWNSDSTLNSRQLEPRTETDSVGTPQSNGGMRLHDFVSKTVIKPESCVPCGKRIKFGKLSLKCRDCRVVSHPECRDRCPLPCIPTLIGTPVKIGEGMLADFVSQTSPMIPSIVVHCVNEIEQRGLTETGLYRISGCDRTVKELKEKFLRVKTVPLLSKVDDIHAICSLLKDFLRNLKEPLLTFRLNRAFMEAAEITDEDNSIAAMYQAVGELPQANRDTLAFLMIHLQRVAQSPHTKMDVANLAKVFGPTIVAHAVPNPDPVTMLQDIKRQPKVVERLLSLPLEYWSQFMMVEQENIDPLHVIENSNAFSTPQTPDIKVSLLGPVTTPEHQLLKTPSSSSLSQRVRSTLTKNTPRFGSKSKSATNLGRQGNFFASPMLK

[14] = biological target: T3, Sentrin-specific protease 8 (Homo sapiens, UniProt Q96LD8); type: functional;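 note: luminescence read-out of SENP8 inhibition, dose-response confirmation following an ultra-high-throughput screen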
T3 sequence (Q96LD8 whole entry): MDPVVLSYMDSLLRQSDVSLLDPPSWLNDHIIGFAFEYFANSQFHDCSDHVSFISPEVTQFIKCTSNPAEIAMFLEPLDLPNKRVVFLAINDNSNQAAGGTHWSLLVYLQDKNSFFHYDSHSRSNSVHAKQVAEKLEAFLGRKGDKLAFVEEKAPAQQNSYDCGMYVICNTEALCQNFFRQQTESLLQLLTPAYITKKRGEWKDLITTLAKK

[15] = biological target: T4, Sentrin-specific protease 7 (Homo sapiens, UniProt Q9BQF6); type: functional;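 note: Luminescence-based dose-response confirmation of ultra-high-throughput screening hits, measuring inhibition of SENP7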
T4 sequence (Q9BQF6 whole entry): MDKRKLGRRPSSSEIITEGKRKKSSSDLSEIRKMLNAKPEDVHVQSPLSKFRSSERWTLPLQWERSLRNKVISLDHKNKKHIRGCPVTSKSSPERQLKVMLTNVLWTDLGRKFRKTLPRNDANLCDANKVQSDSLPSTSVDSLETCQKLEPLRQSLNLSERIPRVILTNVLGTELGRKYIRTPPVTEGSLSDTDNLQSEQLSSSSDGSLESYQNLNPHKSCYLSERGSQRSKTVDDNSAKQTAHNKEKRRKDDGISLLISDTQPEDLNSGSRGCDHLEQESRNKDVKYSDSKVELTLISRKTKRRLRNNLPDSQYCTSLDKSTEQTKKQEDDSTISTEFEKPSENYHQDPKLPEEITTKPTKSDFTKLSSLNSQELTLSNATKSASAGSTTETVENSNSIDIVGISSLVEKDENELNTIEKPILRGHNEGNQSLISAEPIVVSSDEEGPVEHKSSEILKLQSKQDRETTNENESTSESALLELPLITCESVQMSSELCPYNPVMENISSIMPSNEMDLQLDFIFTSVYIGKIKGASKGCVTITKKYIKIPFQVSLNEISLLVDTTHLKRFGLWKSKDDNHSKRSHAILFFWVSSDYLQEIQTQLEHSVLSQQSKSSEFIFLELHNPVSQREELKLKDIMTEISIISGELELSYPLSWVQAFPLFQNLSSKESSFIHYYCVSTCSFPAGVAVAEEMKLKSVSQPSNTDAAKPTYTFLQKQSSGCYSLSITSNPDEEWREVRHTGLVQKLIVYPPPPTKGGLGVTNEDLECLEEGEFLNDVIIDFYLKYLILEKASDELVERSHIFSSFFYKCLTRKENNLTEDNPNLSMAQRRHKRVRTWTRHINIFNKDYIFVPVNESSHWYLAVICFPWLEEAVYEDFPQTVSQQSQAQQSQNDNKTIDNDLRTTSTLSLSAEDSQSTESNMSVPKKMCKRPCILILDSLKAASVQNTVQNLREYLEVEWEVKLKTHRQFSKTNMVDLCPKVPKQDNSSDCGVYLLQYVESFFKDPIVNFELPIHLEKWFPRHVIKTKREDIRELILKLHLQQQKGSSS

[16] = biological target: T5, Sentrin-specific protease 6 (Homo sapiens, UniProt Q9GZR1); type: functional;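 note: Luminescence-based dose-response confirmatory assay of SENP6 inhibition, following up an ultra-high-throughput screen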
T5 sequence (Q9GZR1 whole entry): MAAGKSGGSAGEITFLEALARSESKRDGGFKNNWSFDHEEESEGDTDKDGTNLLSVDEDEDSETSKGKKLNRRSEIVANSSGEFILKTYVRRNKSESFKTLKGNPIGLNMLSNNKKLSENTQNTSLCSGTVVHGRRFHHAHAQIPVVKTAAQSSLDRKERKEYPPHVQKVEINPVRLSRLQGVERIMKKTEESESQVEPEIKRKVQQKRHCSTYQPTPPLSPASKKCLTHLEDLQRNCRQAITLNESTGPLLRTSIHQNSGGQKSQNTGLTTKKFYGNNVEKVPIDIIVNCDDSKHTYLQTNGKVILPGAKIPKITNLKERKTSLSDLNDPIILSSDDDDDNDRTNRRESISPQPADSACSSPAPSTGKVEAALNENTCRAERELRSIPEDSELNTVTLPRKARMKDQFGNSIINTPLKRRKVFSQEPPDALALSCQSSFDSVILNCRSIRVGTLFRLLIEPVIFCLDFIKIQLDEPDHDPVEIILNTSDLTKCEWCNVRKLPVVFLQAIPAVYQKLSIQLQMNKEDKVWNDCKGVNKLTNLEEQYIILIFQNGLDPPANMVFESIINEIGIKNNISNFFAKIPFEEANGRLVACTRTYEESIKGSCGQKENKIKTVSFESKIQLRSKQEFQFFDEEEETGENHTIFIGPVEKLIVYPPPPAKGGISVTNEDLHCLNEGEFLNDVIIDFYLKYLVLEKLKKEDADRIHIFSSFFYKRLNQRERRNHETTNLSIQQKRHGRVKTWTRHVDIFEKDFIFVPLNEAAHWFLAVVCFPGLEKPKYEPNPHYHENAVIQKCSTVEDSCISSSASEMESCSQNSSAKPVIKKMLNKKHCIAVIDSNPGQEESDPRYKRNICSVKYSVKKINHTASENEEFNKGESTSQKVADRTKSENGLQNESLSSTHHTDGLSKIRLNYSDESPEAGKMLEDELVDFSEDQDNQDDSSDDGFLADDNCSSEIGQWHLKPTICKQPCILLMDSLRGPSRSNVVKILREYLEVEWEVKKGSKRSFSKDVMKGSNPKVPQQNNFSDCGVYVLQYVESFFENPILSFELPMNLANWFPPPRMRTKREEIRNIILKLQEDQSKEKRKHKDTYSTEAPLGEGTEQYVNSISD

Caspase-3 = biological target: T6, Caspase-3 (Homo sapiens, UniProt P42574); type: functional;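 note: Dose-response selectivity test against caspase-3 for candidate inhibitors of sentrin-specific proteases (SENPs)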
T6 sequence (P42574 whole entry): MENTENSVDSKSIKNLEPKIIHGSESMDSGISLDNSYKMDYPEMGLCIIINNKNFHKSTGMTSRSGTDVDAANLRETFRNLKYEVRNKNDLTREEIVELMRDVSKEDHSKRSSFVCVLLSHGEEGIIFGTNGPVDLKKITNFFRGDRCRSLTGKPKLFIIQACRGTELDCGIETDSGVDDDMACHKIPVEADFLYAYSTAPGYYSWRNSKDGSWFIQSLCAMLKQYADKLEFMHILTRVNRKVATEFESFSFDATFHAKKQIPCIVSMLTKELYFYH

Sequence of Beta-galactosidase (Q8VNN2 whole entry): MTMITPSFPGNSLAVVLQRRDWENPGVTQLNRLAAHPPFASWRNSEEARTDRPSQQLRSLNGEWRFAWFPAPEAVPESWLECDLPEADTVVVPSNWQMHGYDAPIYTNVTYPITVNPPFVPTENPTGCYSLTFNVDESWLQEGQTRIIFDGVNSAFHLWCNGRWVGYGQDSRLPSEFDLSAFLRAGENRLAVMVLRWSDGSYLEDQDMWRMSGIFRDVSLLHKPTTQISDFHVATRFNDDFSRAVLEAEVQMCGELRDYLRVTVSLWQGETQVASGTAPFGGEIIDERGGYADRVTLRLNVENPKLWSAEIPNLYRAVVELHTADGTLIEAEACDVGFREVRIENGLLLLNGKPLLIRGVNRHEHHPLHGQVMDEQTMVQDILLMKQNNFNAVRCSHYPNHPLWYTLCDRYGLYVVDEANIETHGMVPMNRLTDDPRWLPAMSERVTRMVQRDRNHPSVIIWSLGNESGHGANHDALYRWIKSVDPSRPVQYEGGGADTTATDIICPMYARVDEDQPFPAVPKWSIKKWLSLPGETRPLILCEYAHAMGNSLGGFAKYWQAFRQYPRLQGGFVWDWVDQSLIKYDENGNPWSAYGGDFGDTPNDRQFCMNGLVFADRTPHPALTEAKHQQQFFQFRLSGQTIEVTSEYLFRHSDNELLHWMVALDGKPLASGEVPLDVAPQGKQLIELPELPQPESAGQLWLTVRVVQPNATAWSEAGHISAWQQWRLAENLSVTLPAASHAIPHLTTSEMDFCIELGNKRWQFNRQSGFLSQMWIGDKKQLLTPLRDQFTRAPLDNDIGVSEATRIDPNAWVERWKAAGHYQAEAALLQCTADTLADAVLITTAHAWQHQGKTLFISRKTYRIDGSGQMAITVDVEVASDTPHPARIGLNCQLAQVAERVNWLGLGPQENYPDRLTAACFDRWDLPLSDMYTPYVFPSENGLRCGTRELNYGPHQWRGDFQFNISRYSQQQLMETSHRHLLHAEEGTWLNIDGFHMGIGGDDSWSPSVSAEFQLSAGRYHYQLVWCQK

## CCN1C(=O)C(=Cc2cccc(OC)c2Oc2ccc([N+](=O)[O-])cc2[N+](=O)[O-])SC1=S
Beta-galactosidase
  EC50: > 40 µM (inactive)
BJ [1]
  EC50: 2.5 µM (inconclusive)
[2]
  AC50: 7.11 µM (active)
Vero [3]
  IC50: > 6.25 µM (active)
[4]
  AC50: 1.89 µM (active)
[5]
  IC50: > 40 µM (not active)
BJ [6]
  EC50: 3.5 µM (active)
Vero [7]
  CC50: 3.96 µM (active)
[8]
  EC50: 4.38 µM (active)
[9]
  AC50: 0.853 µM (active)
[10]
  AC50: 5.77 µM (active)
BJ [11]
  EC50: 2.22 µM (active)
BJ [12]
  EC50: 3.45 µM (inconclusive)

## Cn1cccc1/C=C1\SC(Nc2ccc(O)cc2)=NC1=O
BJ [6]
  EC50: 0.357 µM (inconclusive)
[8]
  EC50: 0.362 µM (active)
BJ [11]
  EC50: < 0.104 µM (active)
BJ [12]
  EC50: 0.926 µM (inconclusive)
[13]
  IC50: 94.8 µM (active)

## COc1cccc(NC(=O)C(S)=NC2CCCCC2)c1
[14]
  IC50: 23 µM (active)
[15]
  IC50: 5.39 µM (active)
[16]
  IC50: 20.8 µM (active)
Caspase-3
  IC50: 17.9 µM (active)

## COC(=O)c1ccc(N=Nc2ccccc2)cc1
[14]
  IC50: 20.2 µM (active)
[15]
  IC50: 5.11 µM (active)
[16]
  IC50: 13.2 µM (active)
Caspase-3
  IC50: 11.6 µM (active)
